From patent publication US20220402882A1, “HERBICIDAL COMPOUNDS” (SYNGENTA CROP PROTECTION AG, priority 2019, published 2022)

What was measured:
Format in all cases: in vivo
Details in all cases: 125 g/h, evaluated after 13 days
[1] = system: Setaria faberi (SETFA); test: Pre-emergence glasshouse herbicide test
Experimental: (§1) Seeds of a variety of test species are sown in standard soil in pots (Lolium perenne (LOLPE), Amaranthus retoflexus (AMARE), Abutilon theophrasti (ABUTH), Setaria faberi (SETFA), Echinochloa crus-galli (ECHCG), Ipomoea hederacea (IPOHE)). After cultivation for one day (pre-emergence) or after 8 days cultivation (post-emergence) under controlled conditions in a glasshouse (at 24/16° C., day/night; 14 hours light; 65% humidity), the plants are sprayed with an aqueous spray solution derived from the formulation of the technical active ingredient in acetone/water (50:50) solution containing 0.5% Tween™ 20 (polyoxyethelyene sorbitan monolaurate, CAS RN 9005-64-5). Compounds are applied at 125 g/h unless otherwise indicated. The test plants are then grown in a glasshouse under controlled conditions in a glasshouse (at 24/16° C., day/night; 14 hours light; 65% humidity) and watered twice daily. After 13 days for pre- and post-emergence, the test is evaluated for the percentage damage caused to the plant. The biological activities are shown in the following table on a five-point scale (5=80-100%; 4=60-79%; 3=40-59%; 2=20-39%; 1=0-19%).

[2] = system: Ipomoea hederacea (IPOHE); test: Pre-emergence glasshouse herbicide test
Experimental: as §1

[3] = system: Echinochloa crus-galli (ECHCG); test: Pre-emergence glasshouse herbicide test
Experimental: as §1

[4] = system: Abutilon theophrasti (ABUTH); test: Pre-emergence glasshouse herbicide test
Experimental: as §1

[5] = system: Amaranthus retoflexus (AMARE); test: Pre-emergence glasshouse herbicide test
Experimental: as §1

[6] = system: Setaria faberi (SETFA); test: Post-emergence glasshouse herbicide test
Experimental: as §1

[7] = system: Ipomoea hederacea (IPOHE); test: Post-emergence glasshouse herbicide test
Experimental: as §1

[8] = system: Echinochloa crus-galli (ECHCG); test: Post-emergence glasshouse herbicide test
Experimental: as §1

[9] = system: Abutilon theophrasti (ABUTH); test: Post-emergence glasshouse herbicide test
Experimental: as §1

[10] = system: Amaranthus retoflexus (AMARE); test: Post-emergence glasshouse herbicide test
Experimental: as §1

SMILES | percentage damage caused to the plant, SETFA [1] | percentage damage caused to the plant, IPOHE [2] | percentage damage caused to the plant, ECHCG [3] | percentage damage caused to the plant, ABUTH [4] | percentage damage caused to the plant, AMARE [5] | percentage damage caused to the plant, SETFA [6] | percentage damage caused to the plant, IPOHE [7] | percentage damage caused to the plant, ECHCG [8] | percentage damage caused to the plant, ABUTH [9] | percentage damage caused to the plant, AMARE [10]
CCS(=O)(=O)c1c(OC(F)F)ccc(C(=O)Nc2nnnn2C)c1C [Compound 1.031] | 5 (5=80-100%) | 5 (5=80-100%) | 5 (5=80-100%) | 5 (5=80-100%) | 5 (5=80-100%) | 5 (5=80-100%) | 5 (5=80-100%) | 5 (5=80-100%) | 5 (5=80-100%) | 5 (5=80-100%)
Cn1nnnc1NC(=O)c1ccc(OCC(F)F)c([S+](C)[O-])c1Cl (centres unmarked) [Compound 1.034] | 4 (4=60-79%) | 2 (2=20-39%) | 4 (4=60-79%) | 3 (3=40-59%) | 4 (4=60-79%) | 4 (4=60-79%) | 3 (3=40-59%) | 5 (5=80-100%) | 4 (4=60-79%) | 4 (4=60-79%)
CCS(=O)(=O)c1c(OCC(F)(F)F)ccc(C(=O)Nc2nnnn2C)c1Cl [Compound 1.035] | 5 (5=80-100%) | 5 (5=80-100%) | 5 (5=80-100%) | 5 (5=80-100%) | 5 (5=80-100%) | 5 (5=80-100%) | 5 (5=80-100%) | 5 (5=80-100%) | 5 (5=80-100%) | 5 (5=80-100%)
CC[S+]([O-])c1c(OCC(F)(F)F)ccc(C(=O)Nc2nnnn2C)c1Cl (centres unmarked) [Compound 1.036] | 5 (5=80-100%) | 4 (4=60-79%) | 5 (5=80-100%) | 5 (5=80-100%) | 5 (5=80-100%) | 5 (5=80-100%) | 5 (5=80-100%) | 5 (5=80-100%) | 5 (5=80-100%) | 5 (5=80-100%)
CCSc1c(OCC(F)(F)F)ccc(C(=O)Nc2nnnn2C)c1Cl [Compound 1.037] | 3 (3=40-59%) | 1 (1=0-19%) | 4 (4=60-79%) | 3 (3=40-59%) | 5 (5=80-100%) | 5 (5=80-100%) | 3 (3=40-59%) | 5 (5=80-100%) | 5 (5=80-100%) | 5 (5=80-100%)
CCSc1c(OCC(F)(F)F)ccc(C(=O)Nc2nnnn2C)c1C [Compound 1.038] | 2 (2=20-39%) | 2 (2=20-39%) | 2 (2=20-39%) | 4 (4=60-79%) | 5 (5=80-100%) | 5 (5=80-100%) | 4 (4=60-79%) | 5 (5=80-100%) | 5 (5=80-100%) | 5 (5=80-100%)
CC[S+]([O-])c1c(OCC(F)(F)F)ccc(C(=O)Nc2nnnn2C)c1C (centres unmarked) [Compound 1.039] | 4 (4=60-79%) | 4 (4=60-79%) | 4 (4=60-79%) | 5 (5=80-100%) | 5 (5=80-100%) | 5 (5=80-100%) | 4 (4=60-79%) | 5 (5=80-100%) | 5 (5=80-100%) | 5 (5=80-100%)
CCS(=O)(=O)c1c(OCC(F)(F)F)ccc(C(=O)Nc2nnnn2C)c1C [Compound 1.040] | 5 (5=80-100%) | 5 (5=80-100%) | 5 (5=80-100%) | 5 (5=80-100%) | 5 (5=80-100%) | 5 (5=80-100%) | 5 (5=80-100%) | 5 (5=80-100%) | 5 (5=80-100%) | 5 (5=80-100%)
CCn1nnnc1NC(=O)c1ccc(OC(F)(F)F)c(S(=O)(=O)CC)c1C [Compound 1.046] | 5 (5=80-100%) | 5 (5=80-100%) | 5 (5=80-100%) | 5 (5=80-100%) | 5 (5=80-100%) | 5 (5=80-100%) | 5 (5=80-100%) | 5 (5=80-100%) | 5 (5=80-100%) | 5 (5=80-100%)
CCn1nnnc1NC(=O)c1ccc(OC(F)(F)F)c(S(=O)(=O)CC)c1Cl [Compound 1.047] | 5 (5=80-100%) | 5 (5=80-100%) | 5 (5=80-100%) | 5 (5=80-100%) | 5 (5=80-100%) | 5 (5=80-100%) | 5 (5=80-100%) | 5 (5=80-100%) | 5 (5=80-100%) | 5 (5=80-100%)
CCn1nnnc1NC(=O)c1ccc(OC(F)F)c(S(=O)(=O)CC)c1C [Compound 1.048] | 5 (5=80-100%) | 5 (5=80-100%) | 5 (5=80-100%) | 5 (5=80-100%) | 5 (5=80-100%) | 5 (5=80-100%) | 5 (5=80-100%) | 5 (5=80-100%) | 5 (5=80-100%) | 5 (5=80-100%)
CCn1nnnc1NC(=O)c1ccc(OC(F)F)c(S(=O)(=O)CC)c1Cl [Compound 1.049] | 5 (5=80-100%) | 5 (5=80-100%) | 5 (5=80-100%) | 5 (5=80-100%) | 5 (5=80-100%) | 5 (5=80-100%) | 4 (4=60-79%) | 5 (5=80-100%) | 5 (5=80-100%) | 5 (5=80-100%)
CCCS(=O)(=O)c1c(OC(F)F)ccc(C(=O)Nc2nnnn2C)c1Cl [Compound 1.050] | 5 (5=80-100%) | 3 (3=40-59%) | 5 (5=80-100%) | 5 (5=80-100%) | 5 (5=80-100%) | 5 (5=80-100%) | 4 (4=60-79%) | 5 (5=80-100%) | 5 (5=80-100%) | 5 (5=80-100%)
CCCS(=O)(=O)c1c(OC(F)F)ccc(C(=O)Nc2nnnn2CC)c1Cl [Compound 1.051] | 5 (5=80-100%) | 4 (4=60-79%) | 5 (5=80-100%) | 5 (5=80-100%) | 5 (5=80-100%) | 5 (5=80-100%) | 4 (4=60-79%) | 5 (5=80-100%) | 5 (5=80-100%) | 5 (5=80-100%)
